The target of one data set is T1, EGFR (Homo sapiens, UniProt P00533).
T1 construct: purchased Carna 08-115
As to the kind of experiment: Kinase inhibition, Mobility Shift Assay/IMAP, EGFR. Format: biochemical. The essentials:
(§1)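 Substrate conversion (phosphorylated vs non-phosphorylated) read by mobility shift on Caliper EZ Reader II and converted to % inhibition relative to no-enzyme and DMSO controls. IC50 fitted from % inhibition versus log compound concentration.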

The next data set relates to melanin. As to the kind of experiment: Binding capacity of compounds to melanin. Format: in vitro ADME, cuttlefish (Sepia officinalis). The conditions noted are these: cuttlefish (Sepia officinalis), melanin suspension (1 mg/mL); 1 mg/mL melanin in PBS pH 7.4, 2 μM compound, 2 h at 37° C.; read-out: Fu % (percentage of free drug). The essentials:
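Compound (2 μM final) incubated with washed Sepia melanin (1 mg/mL, PBS pH 7.4) 2 h at 37° C with shaking; PBS with 0.1% BSA served as blank. Supernatants quantified by LC-MS/MS; bound fraction Fb derived from melanin versus blank concentration.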

In data set [1] the target is T2, VEGFR2 (Homo sapiens, UniProt P35968). As to the kind of experiment: Kinase inhibition, Mobility Shift Assay/IMAP, VEGFR2. Format: biochemical. Details: purchased Carna 08-191. The method, boiled down:
as §1
Target sequence in this assay (P35968 790-1356 limits assumed): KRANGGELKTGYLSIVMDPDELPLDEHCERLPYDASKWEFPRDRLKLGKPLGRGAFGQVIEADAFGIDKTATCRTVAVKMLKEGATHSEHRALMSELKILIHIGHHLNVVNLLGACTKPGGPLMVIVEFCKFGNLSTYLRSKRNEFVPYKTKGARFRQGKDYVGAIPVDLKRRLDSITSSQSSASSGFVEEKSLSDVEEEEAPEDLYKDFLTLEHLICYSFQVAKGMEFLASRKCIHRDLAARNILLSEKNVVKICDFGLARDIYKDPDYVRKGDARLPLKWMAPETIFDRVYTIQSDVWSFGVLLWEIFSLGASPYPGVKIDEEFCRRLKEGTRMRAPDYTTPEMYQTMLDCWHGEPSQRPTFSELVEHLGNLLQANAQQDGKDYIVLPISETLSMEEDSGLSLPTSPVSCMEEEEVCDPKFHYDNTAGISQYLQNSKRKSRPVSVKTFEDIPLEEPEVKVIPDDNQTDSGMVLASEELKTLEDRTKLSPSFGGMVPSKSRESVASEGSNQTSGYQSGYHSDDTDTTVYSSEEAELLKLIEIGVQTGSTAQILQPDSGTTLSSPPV

Data set [2] is described as follows: Solubility test in buffer, LC-MS. Format: physicochemical. The conditions noted are these: aqueous buffer, thermodynamic from solid, room temperature, shaking 8 h, pH not given (method: pH 2.0, 6.5, 7.4). As for the experimental part:
Accurately weigh 3 portions of about 2 mg of the compound, and add appropriate volumes of buffers with the pHs of 2.0, 6.5, and 7.4 respectively to obtain a solution with a concentration of 2 mg/mL. After sonication for 10 min, fix them on a shaker and shaking for 8 h at room temperature. After shaking, sonicate for 10 min and centrifuge for 15 min at 13,000 rpm. Pipette 0.1 mL of supernatant into a new tube, shake and rinse it with 5 mL, and discard the liquid. Transfer 0.5 mL of the supernatant again to a new tube, centrifuge it for 15 min at 13,000 rpm, then collect the supernatant (if necessary, dilute with water) and analyze it by LC-MS. The sample concentrations at 3~5 points are subjected to fitting and reticle for quantification.

The next data set concerns HUVEC cells. Briefly: Inhibition of VEGF-induced HUVEC cell proliferation, CellTiter Glo. The conditions noted are these: Homo sapiens, 20 ng/ml VEGF, 72 hours. Format: cell-based. An excerpt: In this experiment, human umbilical vein endothelial cells (HUVEC, Lonza) were used. HUVEC cells are primary cells isolated from umbilical veins. This cell line is a model system to study the functions of endothelial cells. Endothelial cell proliferation in response to VEGF is crucial to the pathological angiogenesis associated with conditions such as tumor development and ocular neovascular diseases.
In this assay, a luciferase bioluminescence assay (CellTiter GLU™, Promega) is used to determine the inhibitory activity of the compounds against VEGF-induced HUVEC cell proliferation and viability. CellTiter GLO™ is a homogeneous method for quantifying the count of viable cells in culture based on ATP, an indicator of metabolically active cells. In this assay, the compound was incubated with HUVEC cells for 72 hours, and then the inhibitory activity of the resulting compound against VEGF-induced HUVEC cell proliferation was measured on the En Vision plate reader.
With the RPMI-1640 medium (plus 5% FBS, 1% Penicillin-Streptomycin) used for the HUVEC cell proliferation experiment, add a cell suspension to a 96-well plate at 100 μl per well, i.e., 4000 HUVEC cells/well, and incubate them overnight in a 5% CO2 incubator at 37° C. (serum starvation). After 24 hours, add 96 μl of the experimental medium to the cell wells, and then add 2 μl of the compound to the cell wells; and after 1 hour following the addition of the compound, add 2 μl of 2 μg/ml VEGF to the cell wells. Add 0.1% DMSO and 20 ng/ml VEGF to cell wells to serve as high-reading control wells. Take cell-free wells with only medium as low-reading control wells. […] After 72 hours of incubation of the cell plate in the incubator, hold the cell plate to be tested at room temperature and discard 100 μl of medium per well. Add 100 μl of CTG reagent (CellTiter Glo kit) per well, oscillate the cell plate in a fast oscillator for 3 minutes, and keep the cell plate at room temperature in the dark for 30 minutes. Read the chemiluminescence signal value with the Envision instrument.
X indicates the log value of compound concentration, Y indicates the inhibition rate (% inhibition), Top indicates the readout of the high-reading control well.
In general terms: ATP-based viability assays read luminescence as a measure of living cells.

For the next data set, the target named is T3, VEGFR1 (Homo sapiens, UniProt P17948).
T3 construct: purchased Invitrogen PR6731B
As to the kind of experiment: Kinase inhibition, Mobility Shift Assay/IMAP, VEGFR1. Format: biochemical. The essentials:
as §1

In the next data set the target is T4, TIE2 (Homo sapiens, UniProt Q02763).
T4 construct: purchased BPS 40270
T4 sequence (Q02763 23-1124): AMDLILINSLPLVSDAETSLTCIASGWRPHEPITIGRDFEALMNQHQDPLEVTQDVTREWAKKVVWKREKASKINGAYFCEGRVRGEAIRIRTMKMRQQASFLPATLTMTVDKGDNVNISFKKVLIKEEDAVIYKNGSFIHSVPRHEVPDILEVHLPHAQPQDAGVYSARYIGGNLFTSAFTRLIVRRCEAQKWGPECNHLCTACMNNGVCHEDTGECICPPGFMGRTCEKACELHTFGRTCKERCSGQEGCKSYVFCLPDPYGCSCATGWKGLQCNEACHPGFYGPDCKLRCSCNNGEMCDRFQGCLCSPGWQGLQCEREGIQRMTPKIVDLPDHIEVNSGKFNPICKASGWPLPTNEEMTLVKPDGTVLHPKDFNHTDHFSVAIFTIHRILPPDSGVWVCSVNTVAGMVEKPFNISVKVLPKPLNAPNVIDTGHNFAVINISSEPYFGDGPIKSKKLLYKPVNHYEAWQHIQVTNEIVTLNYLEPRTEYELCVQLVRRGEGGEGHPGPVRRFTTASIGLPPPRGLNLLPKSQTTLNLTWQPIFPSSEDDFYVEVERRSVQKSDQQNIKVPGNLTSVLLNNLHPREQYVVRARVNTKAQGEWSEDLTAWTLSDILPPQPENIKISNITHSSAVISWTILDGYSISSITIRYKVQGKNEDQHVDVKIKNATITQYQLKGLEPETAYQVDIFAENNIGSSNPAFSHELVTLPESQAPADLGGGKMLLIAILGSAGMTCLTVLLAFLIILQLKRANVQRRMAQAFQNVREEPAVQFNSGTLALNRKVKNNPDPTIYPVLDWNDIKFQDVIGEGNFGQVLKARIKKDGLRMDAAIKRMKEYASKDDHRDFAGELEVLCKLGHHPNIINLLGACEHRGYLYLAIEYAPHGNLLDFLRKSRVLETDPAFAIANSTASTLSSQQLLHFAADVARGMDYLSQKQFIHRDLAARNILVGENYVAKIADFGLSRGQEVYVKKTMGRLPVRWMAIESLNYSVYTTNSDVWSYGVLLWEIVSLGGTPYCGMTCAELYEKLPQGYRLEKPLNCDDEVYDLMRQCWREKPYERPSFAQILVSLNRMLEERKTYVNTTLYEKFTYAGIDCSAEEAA
Briefly: Kinase inhibition, Mobility Shift Assay/IMAP, TIE2. Format: biochemical. The essentials: as §1

For another data set, the target named is T5, VEGFR3 (Homo sapiens, UniProt P35916).
T5 construct: purchased Invitrogen PV4129
T5 sequence (P35916 25-1363): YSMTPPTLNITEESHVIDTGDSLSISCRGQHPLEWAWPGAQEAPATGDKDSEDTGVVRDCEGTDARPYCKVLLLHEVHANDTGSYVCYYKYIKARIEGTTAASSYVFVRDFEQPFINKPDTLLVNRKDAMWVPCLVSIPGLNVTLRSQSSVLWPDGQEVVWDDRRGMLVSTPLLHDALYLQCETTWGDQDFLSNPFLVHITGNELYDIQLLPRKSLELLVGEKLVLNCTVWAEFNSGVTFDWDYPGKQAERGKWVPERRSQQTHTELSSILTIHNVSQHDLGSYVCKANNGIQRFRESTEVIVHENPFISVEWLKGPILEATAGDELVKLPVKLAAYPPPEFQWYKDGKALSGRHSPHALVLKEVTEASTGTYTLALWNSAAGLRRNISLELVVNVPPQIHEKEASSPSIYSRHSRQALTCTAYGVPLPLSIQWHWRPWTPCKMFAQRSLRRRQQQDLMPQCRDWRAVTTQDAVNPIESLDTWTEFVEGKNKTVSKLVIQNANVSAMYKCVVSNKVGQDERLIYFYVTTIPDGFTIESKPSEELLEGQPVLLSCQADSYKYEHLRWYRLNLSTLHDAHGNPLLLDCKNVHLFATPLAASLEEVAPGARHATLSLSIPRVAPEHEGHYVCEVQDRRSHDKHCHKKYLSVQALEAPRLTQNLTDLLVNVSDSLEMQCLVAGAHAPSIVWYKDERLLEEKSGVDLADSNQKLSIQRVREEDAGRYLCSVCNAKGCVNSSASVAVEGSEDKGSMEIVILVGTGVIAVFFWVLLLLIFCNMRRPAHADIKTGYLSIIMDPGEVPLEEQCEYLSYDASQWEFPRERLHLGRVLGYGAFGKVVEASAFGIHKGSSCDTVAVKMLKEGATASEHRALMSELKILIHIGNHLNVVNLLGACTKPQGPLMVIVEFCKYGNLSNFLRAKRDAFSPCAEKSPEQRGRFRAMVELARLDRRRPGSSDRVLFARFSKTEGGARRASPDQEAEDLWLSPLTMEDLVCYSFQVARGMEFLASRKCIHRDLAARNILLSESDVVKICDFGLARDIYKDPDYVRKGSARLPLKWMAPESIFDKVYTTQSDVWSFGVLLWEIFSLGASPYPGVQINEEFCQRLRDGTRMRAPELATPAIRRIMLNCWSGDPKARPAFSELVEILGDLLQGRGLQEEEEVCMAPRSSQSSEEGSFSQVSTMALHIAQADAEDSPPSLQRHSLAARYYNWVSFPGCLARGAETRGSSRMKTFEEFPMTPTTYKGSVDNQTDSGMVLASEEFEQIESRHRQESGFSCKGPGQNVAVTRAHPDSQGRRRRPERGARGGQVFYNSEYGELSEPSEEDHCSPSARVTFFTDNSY
Briefly: Kinase inhibition, Mobility Shift Assay/IMAP, VEGFR3. Format: biochemical. The method, boiled down: as §1

The target in data set [3] is T2, VEGFR2. Briefly: Inhibition of VEGF-induced VEGFR2 autophosphorylation (pVEGFR2) in HUVEC cells, ELISA. Format: cell-based. Details: endogenous in cells; host or cells: HUVEC. To be noted: 50 ng/mL human VEGF, compound 1 h. The text has this:
Vascular endothelial growth factor receptor 2 (VEGFR2) is a primary receptor for VEGF-induced endothelial cell signaling. After ligand binding, VEGFR2 is autophosphorylated and activated. The main function of signaling from VEGFR2 is to induce vascularization during development and after tissue injury, and to bypass blocked blood vessels. Pathologically, VEGF and VEGFR2 are involved in tumor angiogenesis and vascular leakage. They are considered to be main participants in many different cancers and ocular diseases that accompany pathological neovascularization. This assay measured the ability of the compounds to inhibit VEGF-induced VEGFR2 autophosphorylation (pVEGFR2) in HUVEC cells by using ELISA.
Culture cells in a cell culture flask to reach a fusion degree of 60%-80% before cell inoculation. Dilute the cell suspension to […] with a pre-warmed complete medium. Add 80 μL of the cell suspension to all wells of a 96-well cell plate (Corning-3599); and incubate the plate overnight at 37° C. in the presence of 5% CO2. Dissolve the compound powder to 10 mM with DMSO and store it in a nitrogen cabinet. Compound dilution plate: Add a reference compound Ponatinib or a compound to be tested to a 96 V-well plate (Axygen-WIPP 2280) at concentrations achieved as follows: performing 3-fold gradient dilution starting from 5 mM (5 μL of 10 mM compound solution plus 5 μL of DMSO) for a total of 8 concentration points. […] Transfer 20 μL of the diluted compound from the intermediate plate to a cell plate. Then, incubate the cell plate for 1 h at 37° C. in the presence of 5% CO2. After the compound was treated for 1 h, add 25 μL of 250 ng/ml human VEGF at a final concentration of 50 ng/mL to a 96-well plate; and incubate the plate for 5 min at 37° C. in the presence of 5% CO2, centrifuge the plate for 10 min at 3,000 rpm, remove the medium and wash the cells once with 300 μL of pre-chilled DPBS per well. Then, centrifuge the plate for 10 min at 4,000 rpm, remove DPBS, and add 110 μL of pre-chilled 1× cell lysis buffer per well to the 96-well plate. Shake the plate for 40 min at 4° C. Then, freeze the plate in a refrigerator at −80° C. On the next day, remove the plate from the refrigerator at −80° C., thaw the plate, centrifuge the plate for 10 min at 3500 rpm, and add 100 μL of the supernatant per well to an ELISA plate. Seal the plate and incubate it for 2 h at 37° C. Wash the wells 4 times with 1× wash buffer. Add 100 μL of recombinant detection antibody per well. Seal the plate, incubate the plate for 1 h at 37° C., and repeat the step of plate washing. Add 100 μL of secondary antibody per well. Seal the plate, incubate the plate for 30 min at 37° C., and repeat the step of plate washing. Add 100 μL of TMB (protected from light) per well. Seal the plate, incubate the plate for 30 min at 37° C., and add 100 μL of the stop solution per well. Gently shake for 30 sec, measure the absorbance with a SpectraMax® 340 PC 384 Absorbance Microplate Reader within 30 min, and read an optical density value at 450 nm. Conduct data analysis using XL Fit software:
Conduct curve fitting using the 4 Parameter Logistic Model or Sigmoidal Dose-Response Model to obtain IC50 values.
X indicates the log value of compound concentration, Y indicates the inhibition rate (% inhibition), Top indicates the readout of the negative control wells, and Bottom indicates the readout of the positive control well.
Target sequence in this assay (P35968 20-1356): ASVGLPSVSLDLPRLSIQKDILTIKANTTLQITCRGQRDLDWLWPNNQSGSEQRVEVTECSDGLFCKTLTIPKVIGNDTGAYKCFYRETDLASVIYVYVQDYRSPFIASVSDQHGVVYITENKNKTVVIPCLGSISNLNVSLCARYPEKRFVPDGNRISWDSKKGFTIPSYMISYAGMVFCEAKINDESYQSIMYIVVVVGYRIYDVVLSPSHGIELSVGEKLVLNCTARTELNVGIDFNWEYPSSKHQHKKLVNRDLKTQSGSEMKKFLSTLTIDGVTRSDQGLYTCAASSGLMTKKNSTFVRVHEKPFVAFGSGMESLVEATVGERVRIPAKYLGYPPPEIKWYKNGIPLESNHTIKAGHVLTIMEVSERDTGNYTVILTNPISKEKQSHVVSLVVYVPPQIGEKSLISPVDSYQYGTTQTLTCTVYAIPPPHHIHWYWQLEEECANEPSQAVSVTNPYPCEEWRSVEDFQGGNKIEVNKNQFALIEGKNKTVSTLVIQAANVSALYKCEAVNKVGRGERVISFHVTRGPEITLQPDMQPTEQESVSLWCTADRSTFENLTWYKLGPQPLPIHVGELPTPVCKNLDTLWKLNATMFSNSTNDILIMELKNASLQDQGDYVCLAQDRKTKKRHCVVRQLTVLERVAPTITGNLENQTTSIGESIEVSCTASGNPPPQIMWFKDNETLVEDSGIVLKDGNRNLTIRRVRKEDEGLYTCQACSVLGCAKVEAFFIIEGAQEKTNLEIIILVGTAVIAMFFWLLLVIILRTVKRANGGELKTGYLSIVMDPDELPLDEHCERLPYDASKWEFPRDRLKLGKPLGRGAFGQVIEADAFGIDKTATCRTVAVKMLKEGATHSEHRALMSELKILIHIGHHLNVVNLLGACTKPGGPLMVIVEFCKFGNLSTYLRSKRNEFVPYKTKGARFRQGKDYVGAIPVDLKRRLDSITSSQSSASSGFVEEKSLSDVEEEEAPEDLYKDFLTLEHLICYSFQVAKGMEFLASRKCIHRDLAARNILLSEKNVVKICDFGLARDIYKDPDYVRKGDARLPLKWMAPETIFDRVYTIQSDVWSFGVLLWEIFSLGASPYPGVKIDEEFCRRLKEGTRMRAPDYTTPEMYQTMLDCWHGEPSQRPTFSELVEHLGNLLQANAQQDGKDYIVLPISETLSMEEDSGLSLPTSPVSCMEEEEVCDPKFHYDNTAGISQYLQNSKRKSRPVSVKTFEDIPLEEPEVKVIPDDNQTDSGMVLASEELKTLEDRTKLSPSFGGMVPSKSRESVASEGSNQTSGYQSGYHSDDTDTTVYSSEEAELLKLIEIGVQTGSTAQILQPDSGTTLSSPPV
(ELISA stands for enzyme-linked immunosorbent assay.)

This passage reports IC50, fraction unbound and solubility results from patent publication US20260217698A1 (BEYANG THERAPEUTICS CO., LTD., priority 2022, published 2026).

Broadly, the IC50 is the concentration needed to halve the response being measured. Broadly, the solubility is the concentration that dissolves in the medium under given conditions. The low end stands for little dissolved substance, the high end for much dissolved substance.

Molecules are shown by their SMILES. In brackets after ≈: the same amount, converted by molar mass.

T1 sequence (P00533 669-1210 limits assumed): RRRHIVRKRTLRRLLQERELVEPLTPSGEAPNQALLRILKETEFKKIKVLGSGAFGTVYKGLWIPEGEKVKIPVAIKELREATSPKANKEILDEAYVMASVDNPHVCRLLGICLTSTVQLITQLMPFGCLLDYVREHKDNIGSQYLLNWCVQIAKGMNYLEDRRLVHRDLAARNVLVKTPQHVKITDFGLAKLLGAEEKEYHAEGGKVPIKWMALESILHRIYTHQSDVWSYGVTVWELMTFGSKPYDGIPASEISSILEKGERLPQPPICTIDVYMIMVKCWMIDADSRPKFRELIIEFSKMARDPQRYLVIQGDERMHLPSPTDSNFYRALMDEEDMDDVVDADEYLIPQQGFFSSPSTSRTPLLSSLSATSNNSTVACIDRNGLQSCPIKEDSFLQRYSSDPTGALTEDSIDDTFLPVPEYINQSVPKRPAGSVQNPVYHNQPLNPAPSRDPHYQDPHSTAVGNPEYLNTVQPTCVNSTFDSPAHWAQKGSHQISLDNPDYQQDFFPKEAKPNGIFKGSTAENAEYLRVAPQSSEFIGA

On to `COc1cc(COc2nsc(NC(=O)NCCCCN3CC[C@@H](F)C3)c2C(N)=O)cc(OC)c1` [Compound T064, (R)-3-((3,5-dimethoxybenzyl)oxy)-5-(3-(4-(3-fluoropyrrolidin-1-yl)butyl)ureido)isothiazole-4-carboxamide], for which the half-inhibitory concentration (IC50) on EGFR is over 60 µM; at VEGFR2 [1], 43.3 nM; in the data set with HUVEC cells, 79.2 nM. For the same compound, the fraction unbound at 2 h, 2 μM in the data set with melanin is 0.0269. In data set [2], this compound came in with a solubility at 8 h of 400 µg/mL (≈ 807 µM).

For `NC(=O)c1c(OCc2cc3c(cc2F)CCO3)nsc1NC(=O)NCCCCN1CCCC1` [Compound T071, 3-((5-fluoro-2,3-dihydrobenzofuran-6-yl)methoxy)-5-(3-(4-(pyrrolidin-1-yl)butyl)ureido)isothiazole-4-carboxamide], the concentration for half-maximal inhibition (IC50) on EGFR is 15.2 µM; on VEGFR1, 13.4 nM; at TIE2, 147 nM; at VEGFR2 [1], 4.36 nM; on VEGFR3 it was 18.7 nM; in the data set with HUVEC cells it was 74.5 nM. In the data set with melanin, the fraction unbound at 2 h, 2 μM amounted to 0.0231.

For `NC(=O)c1c(OCc2cc3c(cc2F)CCO3)nsc1NC(=O)NCCCCN1CC[C@@H](F)C1` [Compound T079, 3-[(5-fluoro-2,3-dihydrobenzofuran-6-yl)methoxy]-5-[4-[(3R)-3-fluoropyrrolidin-1-yl]butylcarbamoylamino]isothiazole-4-carboxamide], the IC50 came out at 5.14 µM on EGFR; 11.8 nM at VEGFR1; 115 nM at TIE2; 4.47 nM on VEGFR2 [1]; 21.4 nM at VEGFR3; 57.7 nM in the data set on HUVEC cells. The fraction unbound at 2 h, 2 μM in the data set on melanin was 0.0526.

On to `NC(=O)c1c(OCc2cc(C(=O)NC3CC3)ccc2F)nsc1NC(=O)NCCCN1CCCC1` [Compound T098, 3-((5-(cyclopropylcarbamoyl)-2-fluorobenzyl)oxy)-5-(3-(3-(pyrrolidin-1-yl)propyl)ureido)isothiazole-4-carboxamide], for which the half-maximal inhibitory concentration (IC50) is 16.5 µM on EGFR, 4910 nM on TIE2, 132 nM on VEGFR2 [3] and 1.56 nM at VEGFR2 [1]. In the data set with melanin, the fraction unbound at 2 h, 2 μM worked out at 0.0666.

Take `NC(=O)c1c(OCc2cc(C(=O)NC3CC3)ccc2F)nsc1NC(=O)NCCCN1CC[C@@H](F)C1` [Compound T122, 3-[[5-(cyclopropylcarbamoyl)-2-fluoro-phenyl]methoxy]-5-[3-[(3R)-3-fluoropyrrolidin-1-yl]propylcarbamoylamino]isothiazole-4-carboxamide]: the IC50 worked out at 5.68 µM on EGFR, 2100 nM on TIE2, 2.55 nM on VEGFR2 [1] and 44 nM in the data set with HUVEC cells. In addition, the fraction unbound at 2 h, 2 μM in the data set on melanin was found to be 0.0372. In data set [2], this compound showed a solubility at 8 h of 1280 µg/mL (≈ 2450 µM).

In the case of `NC(=O)c1c(OCc2cc(C(=O)NC3CC3)c(F)cc2F)nsc1NC(=O)NCCCCN1CCCC1` [Compound T128, 3-[[5-(cyclopropylcarbamoyl)-2,4-difluoro-phenyl]methoxy]-5-(4-pyrrolidin-1-ylbutylcarbamoylamino)isothiazole-4-carboxamide], the IC50 at TIE2 came to 1180 nM; at VEGFR2 [3] it was 4.9 nM; at VEGFR2 [1], 1.2 nM.

For the compound `NC(=O)c1c(OCc2c(F)cc3c(c2F)OCC3)nsc1NC(=O)NCCCCN1CCCC1` [Compound T129, 3-[(5,7-difluoro-2,3-dihydrobenzofuran-6-yl)methoxy]-5-(4-pyrrolidin-1-ylbutylcarbamoylamino)isothiazole-4-carboxamide], the values for the IC50 at EGFR, on VEGFR2 [3] and on VEGFR2 [1] were 15.6 µM, 71 nM and 11.9 nM, respectively. In addition, the fraction unbound at 2 h, 2 μM in the data set with melanin was 0.0889.

With `NC(=O)c1c(OCc2c(F)cc3c(c2F)OCC3)nsc1NC(=O)NCCCCN1CC[C@H](O)C1` [Compound T134, 3-[(5,7-difluoro-2,3-dihydrobenzofuran-6-yl)methoxy]-5-[4-[(3S)-3-hydroxypyrrolidin-1-yl]butylcarbamoylamino]isothiazole-4-carboxamide], the values for the concentration for half-maximal inhibition (IC50) on EGFR, against VEGFR2 [3] and at VEGFR2 [1] were 20.6 µM, 16 nM and 6.6 nM, respectively. Moreover, in the data set with melanin, the fraction unbound at 2 h, 2 μM turned out to be 0.0401.

Turning to `COc1cc(OC)c(F)c(COc2nsc(NC(=O)NCCC3CCN(C)CC3)c2C(N)=O)c1F` [Compound T145, 3-[(2,6-difluoro-3,5-dimethoxy-phenyl)methoxy]-5-[2-(1-methyl-4-piperidyl)ethylcarbamoylamino]isothiazole-4-carboxamide], the half-inhibitory concentration (IC50) is over 60 µM on EGFR, 2.2 nM against VEGFR2 [3] and 1.39 nM on VEGFR2 [1]. Also, in the data set on melanin, the fraction unbound at 2 h, 2 μM came out at 0.0437.
